Results reported in BindingDB's records for doi:10.1021/jm058276a (Duquesne University, 2006).

These molecules were tested against T1, Dihydrofolate reductase (Homo sapiens, UniProt P00374) (assay: Dihydrofolate Reductase (DHFR) Assay). Details: pH 7.4; 30 °C.
T1 sequence (P00374 whole entry): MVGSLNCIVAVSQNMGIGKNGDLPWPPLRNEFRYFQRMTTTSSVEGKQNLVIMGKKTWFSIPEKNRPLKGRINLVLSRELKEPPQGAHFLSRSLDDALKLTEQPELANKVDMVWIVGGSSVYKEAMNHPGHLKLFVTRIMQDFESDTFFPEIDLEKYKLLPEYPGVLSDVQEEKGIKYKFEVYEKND
Method: DHFRs were assayed spectrophotometrically in the reaction buffer solution containing dihydrofolate. The reaction was initiated with an amount of enzyme yielding a change in optical density at 340 nm of 0.015/min.
For `CCc1[nH]c2nc(N)[nH]c(=O)c2c1Sc1c(C)cccc1C` [2-amino-5-[(2,6-dimethylphenyl)sulfanyl]-6-ethyl-3H,4H,7H-pyrrolo[2,3-d]pyrimidin-4-one], the IC50 was > 31 µM. For `CCc1[nH]c2nc(N)[nH]c(=O)c2c1Sc1ccc(Cl)c(Cl)c1` [2-amino-5-[(3,4-dichlorophenyl)sulfanyl]-6-ethyl-3H,4H,7H-pyrrolo[2,3-d]pyrimidin-4-one], the IC50 was > 27 µM. In the case of `CCc1[nH]c2nc(N)nc(O)c2c1Sc1cccc(Br)c1` [2-amino-5-[(3-bromophenyl)sulfanyl]-6-ethyl-3H,4H,7H-pyrrolo[2,3-d]pyrimidin-4-one], the IC50 is reported as > 27 µM. `CCc1[nH]c2nc(N)nc(O)c2c1Sc1cccc(Cl)c1` [2-amino-5-[(3-chlorophenyl)sulfanyl]-6-ethyl-3H,4H,7H-pyrrolo[2,3-d]pyrimidin-4-one] was tested, and the IC50 was > 31 µM. `CCc1[nH]c2nc(N)nc(O)c2c1Sc1ccc(Br)cc1` [2-amino-5-[(4-bromophenyl)sulfanyl]-6-ethyl-3H,4H,7H-pyrrolo[2,3-d]pyrimidin-4-one] was tested, and the IC50 was > 26 µM. `CCc1[nH]c2nc(N)[nH]c(=O)c2c1Sc1cc(C(F)(F)F)cc(C(F)(F)F)c1` [2-amino-5-{[3,5-bis(trifluoromethyl)phenyl]sulfanyl}-6-ethyl-3H,4H,7H-pyrrolo[2,3-d]pyrimidin-4-one] was tested, and the IC50 was > 24 µM. In the case of `CCc1[nH]c2nc(N)nc(O)c2c1Sc1ccc(F)cc1` [2-amino-6-ethyl-5-[(4-fluorophenyl)sulfanyl]-3H,4H,7H-pyrrolo[2,3-d]pyrimidin-4-one], the IC50 is reported as > 32 µM. In the case of `CCc1[nH]c2nc(N)nc(O)c2c1Sc1ccc([N+](=O)[O-])cc1` [2-amino-6-ethyl-5-[(4-nitrophenyl)sulfanyl]-3H,4H,7H-pyrrolo[2,3-d]pyrimidin-4-one], the IC50 is reported as > 29 µM.
